≈ marks a conversion by molar mass, not a printed value.
Experiments:
Format in all cases: functional
Streptococcus pyogenes [1] = assay: Antimicrobial activity against erythromycin-susceptible Streptococcus pyogenes S2 by broth microdilution method
Staphylococcus aureus [2] = assay: Antimicrobial activity against penicillin-susceptible Staphylococcus aureus P1 by broth microdilution method
Streptococcus pneumoniae [3] = assay: Antimicrobial activity against erythromycin-resistant Streptococcus pneumoniae AB11 expressing the erm and mef gene by broth microdilution method
Staphylococcus aureus [4] = assay: Antimicrobial activity against erythromycin-susceptible Staphylococcus aureus ATCC 25923 by broth microdilution method
Streptococcus pneumoniae [5] = assay: Antimicrobial activity against erythromycin-resistant Streptococcus pneumoniae A22072 expressing the mef gene by broth microdilution method
Streptococcus pneumoniae [6] = assay: Antimicrobial activity against erythromycin-resistant Streptococcus pneumoniae B1 expressing the erm gene by broth microdilution method
Streptococcus pyogenes [7] = assay: Antimicrobial activity against erythromycin-resistant Streptococcus pyogenes R2 by broth microdilution method
Streptococcus pneumoniae [8] = assay: Antimicrobial activity against erythromycin-susceptible Streptococcus pneumoniae ATCC 49619 by broth microdilution method

SMILES	MIC (Streptococcus pyogenes [1]) [µg/mL]	MIC (Staphylococcus aureus [2]) [µg/mL]	MIC (Streptococcus pneumoniae [3]) [µg/mL]	MIC (Staphylococcus aureus [4]) [µg/mL]	MIC (Streptococcus pneumoniae [5]) [µg/mL]	MIC (Streptococcus pneumoniae [6]) [µg/mL]	MIC (Streptococcus pyogenes [7]) [µg/mL]	MIC (Streptococcus pneumoniae [8]) [µg/mL]
CC[C@H]1OC(=O)[C@H](C)[C@@H](O[C@H]2C[C@@](C)(OC)[C@@H](OC(=O)NCCCC(=O)NCc3ccccc3)[C@H](C)O2)[C@H](C)[C@@H](O[C@@H]2O[C@H](C)C[C@H](N(C)C)[C@H]2O)[C@](C)(OC)C[C@@H](C)C(=O)[C@H](C)[C@@H](O)[C@]1(C)O	0.25 (≈ 0.259 µM)	4 (≈ 4.14 µM)	0.25 (≈ 0.259 µM)	0.12 (≈ 0.124 µM)	0.5 (≈ 0.517 µM)	2 (≈ 2.07 µM)	64 (≈ 66.2 µM)	0.03 (≈ 0.031 µM)
CCCNC(=O)O[C@H]1[C@H](C)O[C@@H](O[C@H]2[C@H](C)[C@@H](O[C@@H]3O[C@H](C)C[C@H](N(C)C)[C@H]3O)[C@](C)(OC)C[C@@H](C)C(=O)[C@H](C)[C@@H](O)[C@](C)(O)[C@@H](CC)OC(=O)[C@@H]2C)C[C@@]1(C)OC	0.5 (≈ 0.6 µM)	16 (≈ 19.2 µM)	32 (≈ 38.4 µM)	0.25 (≈ 0.3 µM)	2 (≈ 2.4 µM)	64 (≈ 76.8 µM)	1 (≈ 1.2 µM)	0.25 (≈ 0.3 µM)
CCCCCNC(=O)CCCCCNC(=O)O[C@H]1[C@H](C)O[C@@H](O[C@H]2[C@H](C)[C@@H](O[C@@H]3O[C@H](C)C[C@H](N(C)C)[C@H]3O)[C@](C)(OC)C[C@@H](C)C(=O)[C@H](C)[C@@H](O)[C@](C)(O)[C@@H](CC)OC(=O)[C@@H]2C)C[C@@]1(C)OC	0.25 (≈ 0.257 µM)	8 (≈ 8.21 µM)	128 (≈ 131 µM)	0.5 (≈ 0.513 µM)	4 (≈ 4.11 µM)	128 (≈ 131 µM)	16 (≈ 16.4 µM)	0.03 (≈ 0.0308 µM)
CC[C@H]1OC(=O)[C@H](C)[C@@H](O[C@H]2C[C@@](C)(OC)[C@@H](OC(=O)NCCCC(=O)NCCc3ccccc3Cl)[C@H](C)O2)[C@H](C)[C@@H](O[C@@H]2O[C@H](C)C[C@H](N(C)C)[C@H]2O)[C@](C)(OC)C[C@@H](C)C(=O)[C@H](C)[C@@H](O)[C@]1(C)O	0.03 (≈ 0.0296 µM)	32 (≈ 31.5 µM)	32 (≈ 31.5 µM)	0.25 (≈ 0.246 µM)	1 (≈ 0.986 µM)	32 (≈ 31.5 µM)	1 (≈ 0.986 µM)	0.03 (≈ 0.0296 µM)
CC[C@H]1OC(=O)[C@H](C)[C@@H](O[C@H]2C[C@@](C)(OC)[C@@H](OC(=O)NCCCC(=O)NC3CCCCC3)[C@H](C)O2)[C@H](C)[C@@H](O[C@@H]2O[C@H](C)C[C@H](N(C)C)[C@H]2O)[C@](C)(OC)C[C@@H](C)C(=O)[C@H](C)[C@@H](O)[C@]1(C)O	0.25 (≈ 0.261 µM)	8 (≈ 8.35 µM)	64 (≈ 66.8 µM)	0.5 (≈ 0.522 µM)	2 (≈ 2.09 µM)	32 (≈ 33.4 µM)	8 (≈ 8.35 µM)	0.03 (≈ 0.0313 µM)
CCCNC(=O)CCCCCNC(=O)O[C@H]1[C@H](C)O[C@@H](O[C@H]2[C@H](C)[C@@H](O[C@@H]3O[C@H](C)C[C@H](N(C)C)[C@H]3O)[C@](C)(OC)C[C@@H](C)C(=O)[C@H](C)[C@@H](O)[C@](C)(O)[C@@H](CC)OC(=O)[C@@H]2C)C[C@@]1(C)OC	0.03 (≈ 0.0317 µM)	2 (≈ 2.11 µM)	128 (≈ 135 µM)	0.5 (≈ 0.528 µM)	4 (≈ 4.23 µM)	128 (≈ 135 µM)	16 (≈ 16.9 µM)	0.03 (≈ 0.0317 µM)
CC[C@H]1OC(=O)[C@H](C)[C@@H](O[C@H]2C[C@@](C)(OC)[C@@H](OC(=O)NCCCC(=O)NC(C)C)[C@H](C)O2)[C@H](C)[C@@H](O[C@@H]2O[C@H](C)C[C@H](N(C)C)[C@H]2O)[C@](C)(OC)C[C@@H](C)C(=O)[C@H](C)[C@@H](O)[C@]1(C)O	0.5 (≈ 0.545 µM)	8 (≈ 8.71 µM)	128 (≈ 139 µM)	0.25 (≈ 0.272 µM)	8 (≈ 8.71 µM)	128 (≈ 139 µM)	16 (≈ 17.4 µM)	0.03 (≈ 0.0327 µM)
CC[C@H]1OC(=O)[C@H](C)[C@@H](O[C@H]2C[C@@](C)(OC)[C@@H](O)[C@H](C)O2)[C@H](C)[C@@H](O[C@@H]2O[C@H](C)C[C@H](N(C)C)[C@H]2O)[C@](C)(OC)C[C@@H](C)C(=O)[C@H](C)[C@@H](O)[C@]1(C)O [CLARITHROMYCIN]	0.03 (≈ 0.0401 µM)	0.03 (≈ 0.0401 µM)	128 (≈ 171 µM)	0.12 (≈ 0.16 µM)	4 (≈ 5.35 µM)	64 (≈ 85.6 µM)	4 (≈ 5.35 µM)	0.03 (≈ 0.0401 µM)
CC[C@H]1OC(=O)[C@H](C)[C@@H](O[C@H]2C[C@@](C)(OC)[C@@H](OC(=O)NCc3ccccc3)[C@H](C)O2)[C@H](C)[C@@H](O[C@@H]2O[C@H](C)C[C@H](N(C)C)[C@H]2O)[C@](C)(OC)C[C@@H](C)C(=O)[C@H](C)[C@@H](O)[C@]1(C)O	0.12 (≈ 0.136 µM)	1 (≈ 1.13 µM)	8 (≈ 9.08 µM)	0.25 (≈ 0.284 µM)	0.25 (≈ 0.284 µM)	4 (≈ 4.54 µM)	16 (≈ 18.2 µM)	0.25 (≈ 0.284 µM)
CC[C@H]1OC(=O)[C@H](C)[C@@H](O[C@H]2C[C@@](C)(OC)[C@@H](OC(=O)NCc3ccc(OC)cc3)[C@H](C)O2)[C@H](C)[C@@H](O[C@@H]2O[C@H](C)C[C@H](N(C)C)[C@H]2O)[C@](C)(OC)C[C@@H](C)C(=O)[C@H](C)[C@@H](O)[C@]1(C)O	0.03 (≈ 0.0329 µM)	8 (≈ 8.78 µM)	32 (≈ 35.1 µM)	0.12 (≈ 0.132 µM)	0.25 (≈ 0.274 µM)	16 (≈ 17.6 µM)	0.12 (≈ 0.132 µM)	0.03 (≈ 0.0329 µM)
CCCCNC(=O)CCCNC(=O)O[C@H]1[C@H](C)O[C@@H](O[C@H]2[C@H](C)[C@@H](O[C@@H]3O[C@H](C)C[C@H](N(C)C)[C@H]3O)[C@](C)(OC)C[C@@H](C)C(=O)[C@H](C)[C@@H](O)[C@](C)(O)[C@@H](CC)OC(=O)[C@@H]2C)C[C@@]1(C)OC	0.5 (≈ 0.536 µM)	8 (≈ 8.58 µM)	128 (≈ 137 µM)	0.25 (≈ 0.268 µM)	8 (≈ 8.58 µM)	128 (≈ 137 µM)	16 (≈ 17.2 µM)	0.03 (≈ 0.0322 µM)
CC[C@H]1OC(=O)[C@H](C)[C@@H](O[C@H]2C[C@@](C)(OC)[C@@H](OC(=O)NCCCCCC(=O)NCc3ccc(F)cc3)[C@H](C)O2)[C@H](C)[C@@H](O[C@@H]2O[C@H](C)C[C@H](N(C)C)[C@H]2O)[C@](C)(OC)C[C@@H](C)C(=O)[C@H](C)[C@@H](O)[C@]1(C)O	0.03 (≈ 0.0296 µM)	32 (≈ 31.6 µM)	4 (≈ 3.95 µM)	0.25 (≈ 0.247 µM)	0.5 (≈ 0.494 µM)	2 (≈ 1.98 µM)	0.25 (≈ 0.247 µM)	0.03 (≈ 0.0296 µM)
CC[C@H]1OC(=O)[C@H](C)[C@@H](O[C@H]2C[C@@](C)(OC)[C@@H](O)[C@H](C)O2)[C@H](C)[C@@H](O[C@@H]2O[C@H](C)C[C@H](N(C)C)[C@H]2O)[C@](C)(O)C[C@@H](C)C(=O)[C@H](C)[C@@H](O)[C@]1(C)O [ERYTHROMYCIN]	0.03 (≈ 0.0409 µM)	0.25 (≈ 0.341 µM)	256 (≈ 349 µM)	0.25 (≈ 0.341 µM)	8 (≈ 10.9 µM)	128 (≈ 174 µM)	4 (≈ 5.45 µM)	0.03 (≈ 0.0409 µM)
CC[C@H]1OC(=O)[C@H](C)[C@@H](O[C@H]2C[C@@](C)(OC)[C@@H](OC(=O)NCCCCCC(=O)NC(C)C)[C@H](C)O2)[C@H](C)[C@@H](O[C@@H]2O[C@H](C)C[C@H](N(C)C)[C@H]2O)[C@](C)(OC)C[C@@H](C)C(=O)[C@H](C)[C@@H](O)[C@]1(C)O	0.12 (≈ 0.127 µM)	1 (≈ 1.06 µM)	128 (≈ 135 µM)	0.25 (≈ 0.264 µM)	8 (≈ 8.45 µM)	128 (≈ 135 µM)	32 (≈ 33.8 µM)	0.06 (≈ 0.0634 µM)
CC[C@H]1OC(=O)[C@H](C)[C@@H](O[C@H]2C[C@@](C)(OC)[C@@H](OC(=O)NCCCC(=O)NCc3ccc(F)cc3)[C@H](C)O2)[C@H](C)[C@@H](O[C@@H]2O[C@H](C)C[C@H](N(C)C)[C@H]2O)[C@](C)(OC)C[C@@H](C)C(=O)[C@H](C)[C@@H](O)[C@]1(C)O	0.25 (≈ 0.254 µM)	1 (≈ 1.02 µM)	2 (≈ 2.03 µM)	0.12 (≈ 0.122 µM)	0.25 (≈ 0.254 µM)	1 (≈ 1.02 µM)	16 (≈ 16.3 µM)	0.03 (≈ 0.0305 µM)
CCCCCNC(=O)CCCNC(=O)O[C@H]1[C@H](C)O[C@@H](O[C@H]2[C@H](C)[C@@H](O[C@@H]3O[C@H](C)C[C@H](N(C)C)[C@H]3O)[C@](C)(OC)C[C@@H](C)C(=O)[C@H](C)[C@@H](O)[C@](C)(O)[C@@H](CC)OC(=O)[C@@H]2C)C[C@@]1(C)OC	0.5 (≈ 0.528 µM)	16 (≈ 16.9 µM)	32 (≈ 33.8 µM)	0.5 (≈ 0.528 µM)	2 (≈ 2.11 µM)	8 (≈ 8.45 µM)	16 (≈ 16.9 µM)	0.03 (≈ 0.0317 µM)

— ChEMBL document CHEMBL1667745, “Synthesis and antibacterial evaluation of novel clarithromycin derivatives with C-4″ elongated arylalkyl groups against macrolide-resistant strains” (2011)
